# Test system: adult T. muris
# Assay: Ex vivo adult T. muris automated motility assay (primary/secondary screen at 100 μM and dose-response)
# Set-up: species or system Trichuris muris
# Conditions: for PRIMARY_SCREEN_MINUS_LOG_FOLD_CHANGE_MOVEMENT: primary screen; for PRIMARY_SCREEN_MINUS_LOG_FOLD_CHANGE_MOVEMENT / SECONDARY_SCREEN_MINUS_LOG_FOLD_CHANGE_MOVEMENT: adult T. muris motility; for SECONDARY_SCREEN_MINUS_LOG_FOLD_CHANGE_MOVEMENT: secondary screen
# Description: Severe combined immune deficiency (SCID) mice were bred in the Biological Services Facility at the University of Manchester. Both male and female SCID mice were infected with a high dose of 200 infective embryonated T. muris eggs via oral gavage. At day 35 post-infection, groups of 5 mice were killed and their […] colons removed. Guts were opened longitudinally, washed with pre-warmed Roswell Park Memorial Institute (RPMI) 1640 media supplemented with penicillin (500U/ml) and streptomycin (500μg/ml) and adult T. muris worms gently removed using fine forceps. Worms removed from SCID mice were maintained in RPMI-1640 media supplemented with penicillin (500U/ml) and streptomycin (500μg/ml) at approximately 37°C and studied on the same day. Using fine forceps, individual live worms were placed into 96 well plates containing 75μl of RPMI-1640 medium supplemented with penicillin (500U/ml) and streptomycin (500μg/ml) plus 1% final concentration of DMSO or compound dissolved in DMSO. In the primary screen the test compound concentration was 100μM. Plates were then incubated at 37°C, 5% CO2, and motility was analysed after 24 hours. Worm movement was quantified using an automated motility assay. This system gives an estimate of worm movement in each well by thresholding and quantifying pixel intensity variance over time. An earlier version of this system has been previously described. One adult T. muris worm was used per well, with one well per compound in each replicate of the primary screen. The primary screen was repeated each week for a period of four weeks giving four independent biological replicates from separate parasite batches for each compound. Dose-response curves were calculated with the four factor log-logistic model using the R package drc. The primary screen was carried out at 100μM final concentration. Assay plates were assigned unique IDs and statistical analysis was performed without knowledge of compound identities using R scripts. Once hit wells were identified, well/plate positions were mapped to compound identities using DataWarrior [28]. […] Compounds identified as having encouraging activity from the DMSO solution samples were then resynthesized for confirmatory testing.
# [1] = combined primary and secondary screen minus log fold change in movement, adult T. muris, 100 μM
# [2] = adult T. muris motility screen at 100 μM, combines primary and secondary screen minus log fold change in movement (mean where both are given)
SMILES,COMBINED_SCREEN_ACTIVITY [1],PRIMARY_SCREEN_MINUS_LOG_FOLD_CHANGE_MOVEMENT (100 μM),SECONDARY_SCREEN_MINUS_LOG_FOLD_CHANGE_MOVEMENT (100 μM),COMBINED_SCREEN_ACTIVITY [2]
O=C1COCc2ccc(-c3cnc4ccccc4c3)cc2N1CCN1CCOCC1 [Compound 173],0.2312,0.2312,,
Cc1ccc(-c2ccc3c(c2)N(CCN2CCOCC2)C(=O)COC3)cc1C [Compound 134],-2.044,-2.044,,
Cn1cc(-c2ccc3c(c2)COCC(=O)N3Cc2ccc3c(c2)OCO3)cn1 [Compound 127],0.2993,-0.5635,1.162,
COc1ccccc1-c1ccc2c(c1)COCC(=O)N2Cc1ccccc1Cl [Compound 150],-1.328,-1.328,,
O=C1COCc2cc(-c3cc(F)cc(F)c3)ccc2N1CCN1CCOCC1 [Compound 138],-0.5965,-0.5965,,
O=C1COCc2ccc(-c3ccncc3)cc2N1CC1CCCCC1 [Compound 60],7.742,7.742,,
O=C1COCc2cc(-c3cccnc3)ccc2N1Cc1cc(F)cc(F)c1 [Compound 109],7.462,7.462,,
O=C1COCc2cc(-c3cc(F)cc(Cl)c3)ccc2N1CCN1CCOCC1 [Compound 174],-1.356,-1.356,,
O=C1COCc2cc(-c3cccc(O)c3)ccc2N1CCc1ccccc1 [Compound 97],-0.7944,-0.7944,,
COC(=O)c1cccc(-c2ccc3c(c2)N(Cc2cccc(OC)c2)C(=O)COC3)c1 [Compound 183],,-1.271,,-1.271
COc1cccc(CN2C(=O)COCc3cc(-c4cccc(CO)c4)ccc32)c1 [Compound 142],-0.6408,-0.6408,,
Cc1ccccc1CN1C(=O)COCc2ccc(-c3cccc(CO)c3)cc21 [Compound 122],-0.2289,-1.039,0.5816,
CC(C)N1C(=O)COCc2ccc(-c3cccc(F)c3)cc21 [Compound 29],1.463,1.463,,
COCCN1C(=O)COCc2ccc(-c3cccc(NC(C)=O)c3)cc21 [Compound 88],-0.1104,-1.635,1.414,
O=C1COCc2c(Br)cccc2N1Cc1ccccc1 [Compound 55],1.386,1.386,,
O=C1COCc2ccc(-c3ccncc3)cc2N1Cc1ccccc1 [Compound 49],-0.743,-0.743,,
COCc1cccc(-c2ccc3c(c2)COCC(=O)N3Cc2cc(F)cc(F)c2)c1 [Compound 179],0.9799,0.9799,,
COc1ccccc1-c1ccc2c(c1)COCC(=O)N2Cc1ccc(C(=O)N(C)C)cc1 [Compound 188],,1.744,,1.744
O=C1COCc2cc(-c3cccc(CO)c3)ccc2N1Cc1ccc2c(c1)OCO2 [Compound 168],1.914,1.914,,
N#Cc1cccc(-c2ccc3c(c2)N(CC2CC2)C(=O)COC3)c1 [Compound 40],-0.6738,-0.6738,,
O=C(O)c1cccc(-c2ccc3c(c2)N(Cc2ccccc2)C(=O)COC3)c1 [Compound 117],-1.457,-1.457,,
COc1cccc(CN2C(=O)COCc3cc(-c4ccc(OC)nc4)ccc32)c1 [Compound 143],-1.1304,-1.1304,,

# Reference: PMC5321434, “Dihydrobenz[e][1,4]oxazepin-2(3H)-ones, a new anthelmintic chemotype immobilising whipworm and reducing infectivity in vivo” (PLoS Neglected Tropical Diseases, 2017)
